{
  "source": "patent US12661410B2",
  "about": "“Compounds for targeted degradation of RET” (C4 Therapeutics, Inc., priority 2020, dated 2026)",
  "key": {"phospho-SHC": {"system": "phospho-SHC", "assay": "phospho-SHC protein level in CR^2518 brain tumors (western blot)", "assay_type": "in vivo, mice", "settings": "single IV dose 5 mg/kg or 30 mg/kg, at 5 hours", "procedure": "For intracranial PDX model CR^2518, tumors were first grown in stock mice, then tumor fragments were harvested and digested for cell suspension preparation. 5×10^5 CR^2518 cells in 4 μl PBS were injected intracranially over 5 min, 2.5 mm intraparenchymally, 2 mm lateral from and 0.5 mm anterior to the bregma for tumor development in female BALB/c nude mice. With the appearance of clinical signs (body weight loss, inactivity), mice were randomized into groups of 3, stratified to result in about equal average body weight, and dosing was initiated on Day 0.\nCompound 122 was formulated in 40% PEG400 and 60% of 10% hydroxypropyl beta cyclodextrin (HPPCD) in double distilled water, which was also used for the vehicle group. […] Tumor volume was measured in two dimensions using calipers, and volume (mm^3) was calculated using the formula: V=0.5 a×b^2 where a and b are the long and short diameters of the tumor in mm, respectively.\n3 tumors and plasma samples were collected per each time point sampled. For pharmacokinetic analysis, plasma and tumor samples were injected into LC/MS/MS system for quantitative analysis. […] Protein concentration was quantified using a Pierce™ BCA Protein Assay Kit, samples were reduced, and equal protein amounts were then loaded onto a western blot gel for analysis. […]"}, "[1]": {"assay": "Body weight of mice bearing CTG-0838 tumors", "assay_type": "in vivo", "settings": "after 21 days of daily treatment (5 mg/kg IV or 30 mg/kg PO)", "procedure": "For PDX model CTG-0838, tumors were first grown in stock mice, then tumor fragments were harvested and inoculated into the left flank of female Athymic Nude-Foxn1nu mice for tumor development. Tumor volume and body weight were measured on designated days. Tumor volume was measured in two dimensions using a digital caliper, and volume (mm^3) was calculated using the formula: V=0.52 a×b^2 where a and b are the long and short diameters of the tumor in mm, respectively. Once tumors reached an average volume of 200-300 mm^3, the animals were divided randomly into groups of 3, stratified to result in about equal average tumor sizes in each treatment group, and dosing was initiated on Day 0.\nCompound 122 was administered once a day intravenously (IV) at 5 mg/kg or orally (PO) at 30 mg/kg for 21 days. Compound 122 was formulated in 40% PEG400 and 60% of 10% hydroxypropyl beta cyclodextrin (HPPCD) in double distilled water, which was also used for the vehicle group. Body weight and tumor volume were measured on a 2× weekly schedule. Data are represented as MTV±SEM."}},
  "data": [
    {"smiles": "CCC1(C(=O)NC(C)C)CCN(c2ccc(-c3nc(-c4cnn([C@H]5CC[C@H](N6CCC(c7ccc(NC8CCC(=O)NC8=O)cc7F)CC6)CC5)c4)cn4ncc(C#N)c34)cn2)CC1", "note": "(single isomer, unassigned) [Compound 122, 1-(5-(3-cyano-6-(1-((1r, 4r)-4-(4-(4-((2,6-dioxopiperidin-3-yl)amino)-2-fluorophenyl)piperidin-1-yl)cyclohexyl)-1H-pyrazol-4-yl)pyrazolo[1,5-a]pyrazin-4-yl)pyridin-2-yl)-4-ethyl-N-isopropylpiperidine-4-carboxamide]", "values": [
      {"measurement": "reduction in phospho-SHC protein levels in brain tumors", "setting": "phospho-SHC", "result": "75-80%"},
      {"measurement": "body weight loss", "setting": "[1]", "result": "No body weight loss"}
    ]}
  ]
}
